Measured values: patent US4781863A, “Aminocarnitines” (Cornell Research Foundation, Inc., priority 1987, dated 1988)

What was measured:
[1] = target: T1, carnitine acetyltransferase (Columba livia, UniProt P52826); assay: carnitine acetyltransferase inhibition assay (coupled CS/MDH, NADH at 340 mμ); assay type: biochemical
T1 sequence (P52826 31-627): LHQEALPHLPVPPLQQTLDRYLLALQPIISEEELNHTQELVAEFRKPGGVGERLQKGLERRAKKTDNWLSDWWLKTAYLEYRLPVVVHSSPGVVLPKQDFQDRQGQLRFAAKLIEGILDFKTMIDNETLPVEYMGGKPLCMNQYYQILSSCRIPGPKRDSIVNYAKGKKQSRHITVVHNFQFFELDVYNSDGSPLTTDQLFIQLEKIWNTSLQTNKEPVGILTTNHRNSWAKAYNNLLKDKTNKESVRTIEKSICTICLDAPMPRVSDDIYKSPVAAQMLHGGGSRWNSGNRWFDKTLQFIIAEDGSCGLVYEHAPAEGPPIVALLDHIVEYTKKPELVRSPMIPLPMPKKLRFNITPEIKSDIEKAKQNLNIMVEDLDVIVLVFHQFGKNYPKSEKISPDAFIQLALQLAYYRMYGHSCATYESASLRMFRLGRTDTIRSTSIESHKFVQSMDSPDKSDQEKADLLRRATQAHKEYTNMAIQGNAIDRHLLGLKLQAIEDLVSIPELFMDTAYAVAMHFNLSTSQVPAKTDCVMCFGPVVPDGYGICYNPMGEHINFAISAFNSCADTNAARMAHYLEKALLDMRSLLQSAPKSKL
Method: D,L-3-acetamido-4-trimethylaminobutyric acid.H2 O, referred to hereinafter as AAC, was assayed for inhibition of carnitine acetyltransferase.
The procedure used is described in Fritz, I. B., Schultz, S. K., and Srere, P. A., "Properties of Partially Purified Carnitine Acetyltransferase", J. Biol. Chem., 238, 2509-2517 (1963).
The assay was based on the following reactions wherein CAT is used to denote carnitine acetyltransferase, CS is used to denote citrate synthase, MDH is used to denote malate dehydrogenase, NAD is used to denote β-nicotinamide adenine dinucleotide (unreduced form) and NADH is used to denote β-nicotinamide adenine dinucleotide (reduced form):
The assay is based on the fact that the velocity of reaction to produce acetyl-Coenzyme A is reduced to the extent that CAT is inhibited. Reactions (2) and (3) are a detection system for acetyl-Coenzyme A wherein acetyl-Coenzyme A, as it is produced, reacts with oxaloacetate thereby causing the MDH to catalyze production of oxaloacetate to replace that which is used and resulting in production of NADH which is detected using a spectrophotometer based on its property of absorbing light at 340 mμ. Thus, when CAT is bound and inhibited, the rate of NADH production is decreased and the rate of increase of absorbency at 340 mμ is decreased. The results are readily compiled in a Lineweaver-Burk plot of the reciprocal of reaction velocity versus the reciprocal of concentration of acetylcarnitine and the data can be analyzed to o provide Ki ' values as mentioned above.
Sixteen runs were carried out. They consisted of a set of 4 runs where 1 mM of D,L-acetylcarnitine (pH 8.0) was included, a set of 4 runs where 2 mM of D,L-acetylcarnitine was included, a set of 4 runs where 5 mM of D,L-acetylcarnitine was included and a set of 4 runs where 10 mM of D,L-acetylcarnitine was included. In each set of runs, one run was conducted without AAC, one run was conducted with 0.1 mM AAC, one run was conducted with 0.5 mM AAC, and one run was conducted with 1.0 mM AAC.
Each run was carried out utilizing a cuvette with 1 ml total being added to it. To each cuvette was added 0.7 ml of a premix of aqueous solutions of Tris-HCl buffer, NAD^+, dithiothreitol, and Tris D,L-malate, pH of 8.0 (concentrations in the premix were as follows: Tris-HCl, 143 mM; NAD^+, 0.71 mM; dithiothreitol, 4.3 mM; and Tris D,L-malate, 14.3 mM, the selected amount of D,L-acetylcarnitine as described above, 0.05 ml of a 4 mM aqueous solution of Coenzyme A, 0.025 ml of a 168 units/ml solution of CS, 0.025 ml of a 240 units/ml solution of MDH, the selected amount of AAC as described above, and water to 0.995 ml. The D,L-acetylcarnitine was added utilizing solution of concentration of 100 mM (in other words 0.010 ml for the first set of runs, 0.020 ml for the second set of runs, 0.050 ml for the third set of runs, 0.100 ml for the fourth set of runs). The AAC was added utilizing solution of concentration of 100 mM (in other words, additions for runs in each set were of 0 ml, 0.001 ml, 0.005 ml and 0.010 ml).
After the above described reactants were added, each cuvette and its contents were incubated for 15 minutes at 30° C.
Directly after the incubation period, 0.005 ml of CAT (concentration 5 units/ml) was added in each case.
The reaction rate in each case was measured as described above as a function of change in absorbance at 340 mμ (providing a time course of NADH formation) and was expressed as mole NADH/min. (1 mM NADH =6.2×ΔA340).
A Ki 'value for the D,L form of AAC was calculated to be 5×10^-5 M which is 10^-2 to 10^-3 times the Ki ' values found by Fritz and Schultz for the compounds they tested.

[2] = test system: carnitine palmitoyltransferase; assay: binding and inhibition of carnitine palmitoyltransferase; assay type: biochemical; settings: no test described
[3] = toxicity of administered amount in mice; assay type: in vivo; settings: 5 mmol/kg intraperitoneally
Method: (§1) Four mice were injected subcutaneously with 0.5 mmol/kg carbon 14 tagged acetylcarnitine. Two of them were injected intraperitoneally with 5 mmol/kg of AAC. The carbon 14 CO2 output of the mice was monitored every 15 minutes for 6 hours and for each mouse a graph was prepared with time on the X-axis and % of radiolabelled CO2 on the Y-axis. […] The amount of AAC administered was not toxic to the mice.

CAT = target: T2, CAT (Mus musculus, UniProt P47934); assay: carbon 14 CO2 output of mice given carbon 14 tagged acetylcarnitine; assay type: in vivo; settings: 5 mmol/kg intraperitoneally, 0.5 mmol/kg carbon 14 acetylcarnitine subcutaneously, monitored 6 hours
T2 construct: from tissue; host or cells: whole living mice (endogenous enzyme)
T2 sequence (P47934 1-626): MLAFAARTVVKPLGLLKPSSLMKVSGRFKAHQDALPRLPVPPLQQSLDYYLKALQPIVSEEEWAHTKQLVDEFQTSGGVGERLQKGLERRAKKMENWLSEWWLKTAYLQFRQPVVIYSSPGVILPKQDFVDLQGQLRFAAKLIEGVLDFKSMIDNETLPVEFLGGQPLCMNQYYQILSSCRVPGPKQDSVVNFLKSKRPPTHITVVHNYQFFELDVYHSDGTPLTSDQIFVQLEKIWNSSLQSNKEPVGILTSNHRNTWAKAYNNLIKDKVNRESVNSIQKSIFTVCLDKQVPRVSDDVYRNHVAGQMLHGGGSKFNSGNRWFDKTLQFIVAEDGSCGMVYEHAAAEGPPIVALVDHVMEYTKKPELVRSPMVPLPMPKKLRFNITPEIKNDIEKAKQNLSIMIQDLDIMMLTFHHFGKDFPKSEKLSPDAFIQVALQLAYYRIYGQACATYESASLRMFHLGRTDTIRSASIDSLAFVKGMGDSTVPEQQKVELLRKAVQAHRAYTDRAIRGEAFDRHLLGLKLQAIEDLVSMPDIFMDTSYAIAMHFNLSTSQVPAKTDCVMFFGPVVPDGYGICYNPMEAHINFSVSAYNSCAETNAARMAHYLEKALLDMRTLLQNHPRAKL
Method: as §1

[4] = cited from earlier work

Q: What does the source list for C[N+](C)(C)CC(CC(=O)[O-])NC(=O)CBr (racemic) [D,L-3-bromoacetamido-4-trimethylaminobutyricacid.H2 O]?
A: reversibility of binding action [1]: irreversible; inhibition of CAT ([1]; no test described): inhibits CAT similarly to AAC

Q: With CCCCCCCCCCCCCCCC(=O)NC(CC(=O)[O-])C[N+](C)(C)C (racemic) [PAC, D,L-3-palmitoamido-4-trimethylaminobutyric acid.H2 O] as the molecule, how does the “binding and inhibition of carnitine palmitoyltransferase” value [2] read?
A: readily binds to and inhibits carnitine palmitoyltransferase

Q: For CC(=O)NC(CC(=O)[O-])C[N+](C)(C)C (racemic) [AAC, D,L-3-acetamido-4-trimethylaminobutyric acid.H2 O], which “toxicity of the amount administered” value [3] is on record?
A: not toxic

Q: What about the “Ki' relative to the Ki' values found by Fritz and Schultz for the compounds they tested” value [1] of the same molecule?
A: 10^-2 to 10^-3 times

Q: And the “reversibility of binding action” value [1]?
A: reversible by dilution

Q: What about the Ki ([1]; D,L form, Lineweaver-Burk plot, 1-10 mM D,L-acetylcarnitine, pH 8.0, 30° C) of the same molecule?
A: 50 µM

Q: What about the “mode of inhibition of CAT” value ([1]; Lineweaver-Burk plot, same site as acetyl carnitine) of the same molecule?
A: competitive inhibitor

Q: And the inhibition at 100 µM ([1]; at a concentration of 0.1 mM, read-out: inhibition of formation of acetyl-Coenzyme A)?
A: 34%

Q: What about the inhibition at 500 µM ([1]; at a concentration of 0.5 mM, read-out: inhibition of formation of acetyl-Coenzyme A) of the same molecule?
A: 67%

Q: And the inhibition at 1000 µM ([1]; at a concentration of 1 mM, read-out: inhibition of formation of acetyl-Coenzyme A)?
A: 81%

Q: And the “binding to CAT relative to acetylcarnitine (times more tightly)” value ([1]; from Lineweaver-Burk plot)?
A: 18 times

Q: What about the “rate of radiolabelled CO2 output” value (CAT) of the same molecule?
A: retarded rate of radiolabelled CO2 output

Q: For C[N+](C)(C)CC(CC(=O)[O-])OC(=O)CBr [Bromoacetyl-L-carnitine], which toxicity in vivo [4] is on record?
A: toxicity due to release of bromine and/or bromoacetate
